pEC50: −log10 of the molar value.
Test system: genotype A, "Long" strain RSV
Assay: RSV-A in vitro cytoprotection assay in HEp-2 cells (ATPlite readout of cell viability)
Format: cell-based, Human respiratory syncytial virus
Details: human respiratory syncytial virus, HEp-2
Excerpt: RSV is a single stranded negative sense RNA virus that causes respiratory tract infections which can be dangerous to infants, the elderly, and immunosuppressed individuals. Currently there is no vaccine, and therapeutic options are both costly and of limited effectiveness. These approved treatments are Ribavirin, and Palivizumab/Synagis (a monoclonal antibody). RSV has two genotypes, A and B, which differ primarily in the structure of the virus' surface “G” attachment protein. Our current primary screen focuses on RSV-A and uses an in vitro cytoprotection assay where compounds are added in 2-fold dilutions to cells which are then subjected to fully replicative viral particles. Cell viability is measured several days later along with separate measurements of compound cytotoxicity. This report focuses on the results of our most recent screening of compounds.
HEp-2 cells, (originally derived from tumors grown in irradiated-cortisonised weanling rats that had been injected with epidermoid carcinoma tissue from a person's larynx, but later found to be indistinguishable from HeLa cells by PCR DNA analysis), were used for the culturing of genotype A, “Long” strain RSV. Flasks were inoculated with RSV and viral stocks were collected once cytopathic effect (CPE) was greater than 90%. Viral stocks in 25% sucrose media were snap frozen using liquid nitrogen to increase viral stability. Viral stock titers were quantified by tissue culture infectious dose 50% (TCID50) using 8,000 cells per well and 3-fold viral dilutions across a 96-well plate, cultured for 4 days.
Following extensive parameter testing, the final assay is run as follows: HEp-2 cells are seeded into the inner 60 wells of a 96-well plate at 8,000 cells per well in a volume of 50 μL using Growth Media (DMEM without phenol red, 1% L-Glut, 1% Penn/Strep, 1% nonessential amino acids, 10% FBS). 2-Fold serial dilutions of control and test compounds are added to the wells in duplicate in a total volume of 25 μL. Viral stock is then added to the wells in a volume of 25 μL, bringing the total volume of each well to 100 μL. Each 96-well plate has a control column of 6 wells with cells and virus but no compound (negative control, max CPE), a column with cells but no compound or virus (positive control, minimum CPE), and a column with no cells or virus or compound (background plate/reagent control). The control wells with cells but no virus are given an additional 25 uL of growth media containing an equal quantity of sucrose as those wells receiving the viral stock in order to keep consistent in media and volume conditions. The outer wells of the plate are filled with 125 μL of growth media to act as a thermal and evaporative moat around the test wells. Following a 4-day incubation period, the plates are read using ATPlite (50 uL added per well), which quantifies the amount of ATP (a measure of cell health) present in each well. Assay plates are read using the Envision luminometer. In parallel, cytotoxicity is examined on an additional 96-well plate treated in an identical manner, but substituting the 25 μL of viral stock for 25 μL of growth media. […] EC50 ranges are as follows: A <0.4 μM; B 0.4-0.8 μM; C >0.8 μM.

Compound `O=C(Nc1ccccc1F)N[C@H]1N=C(c2ccccc2)c2ccccc2NC1=O` [RSV-604, reference compound] has a pEC50 of ~5.62.

Same assay, conditions: human respiratory syncytial virus, HEp-2, HEp-2 cells, genotype A “Long” strain RSV, cytoprotection; read-out: Human RSV-A (“Long” strain) EC50

Compared with `O=C(NC1CC1)c1cc2c(s1)-c1ccccc1N(C(=O)c1cccc(N3CCCOCC3)n1)CC2` [Example 17], `O=C(NC1CC1)c1cc2c(s1)-c1ccccc1N(C(=O)c1cccc(N3CC4(CCOCC4)C3)n1)CC2` [Example 19] is lower in pEC50: > 6.40 for the first, < 6.10 for the second. The first is the more potent here.

`COc1ncccc1Oc1cccc(C(=O)N2CCc3cc(C(=O)NC4CC4)sc3-c3ccccc32)n1` [Example 394] and `COc1ncccc1Nc1cccc(C(=O)N2CCc3cc(C(=O)NC4CC4)sc3-c3ccccc32)n1` [Example 410] cannot be ordered by pEC50: < 6.10 for the first, < 6.10 for the second.

`Cc1cccc(F)c1NC(=O)c1cc2c(s1)-c1ccccc1N(C(=O)c1cccc(-c3cn(C)nc3C3CC3)n1)CC2` [Example 197] and `Cc1cccc(F)c1NC(=O)c1cc2c(s1)-c1ccccc1N(C(=O)c1cccc(-c3cn(C(=O)C(C)C)nc3C3CC3)n1)CC2` [Example 225] cannot be ordered by pEC50: > 6.40 for the first, > 6.40 for the second.

First: O=C(NC1CC1)c1ccc2c(c1)CCN(C(=O)c1cccc(N3CCOc4ccccc4C3)n1)c1ccccc1-2 [Example 397]
Second: O=C(N[C@@H]1CCOC1)c1cc2c(s1)-c1ccccc1N(C(=O)c1cccc(N3CCOc4ccccc4C3)n1)CC2 [Example 309]
The pEC50 of the first is lower: < 6.10 for the first, > 6.40 for the second.

First: O=C(NC1CC1)c1cc2c(s1)-c1ccccc1N(C(=O)c1cncc(N3CCOCC3)n1)CC2 [Example 53]
Second: COc1ccc(C(=O)N2CCc3cc(C(=O)NC4CC4)sc3-c3ccccc32)nc1N1CCOCC1 [Example 39]
The pEC50 of the first is higher: 6.10 to 6.40 for the first, < 6.10 for the second. The first is the more potent here.

`COCCN(c1cccc(C(=O)N2CCc3cc(C(=O)Nc4c(C)cccc4F)sc3-c3ccccc32)n1)C1CCC1` [Example 328] and `COC[C@H]1CCN1c1cccc(C(=O)N2CCc3cc(C(=O)Nc4c(C)cccc4F)sc3-c3ccccc32)n1` [Example 507] cannot be ordered by pEC50: > 6.40 for the first, > 6.40 for the second.

`COC[C@@H]1CCCN1c1cccc(C(=O)N2CCc3cc(C(=O)Nc4c(C)cccc4F)sc3-c3ccccc32)n1` [Example 505] and `COC[C@H]1CCCN1c1cccc(C(=O)N2CCc3cc(C(=O)Nc4c(C)cccc4F)sc3-c3cc(F)ccc32)n1` [Example 359] cannot be ordered by pEC50: > 6.40 for the first, > 6.40 for the second.

Compared with `COc1ccc2c(c1)OCCN(c1cccc(C(=O)N3CCc4cc(C(=O)NC5CC5)sc4-c4ccccc43)n1)C2` [Example 282], `Cn1ccnc1NC(=O)c1cc2c(s1)-c1ccccc1N(C(=O)c1cccc(N3CCOc4ccccc4C3)n1)CC2` [Example 302] is lower in pEC50: > 6.40 for the first, < 6.10 for the second.

`Cc1cccc(F)c1NC(=O)c1cc2c(s1)-c1ccccc1N(C(=O)c1cccc(-n3cnc4ncccc43)n1)CC2` [Example 122] and `Cc1cccc(F)c1NC(=O)c1cc2c(s1)-c1ccccc1N(C(=O)c1cccc(-c3coc4cccnc34)n1)CC2` [Example 257] cannot be ordered by pEC50: < 6.10 for the first, < 6.10 for the second.

First: O=C(NC1CC1)c1cc2c(s1)-c1ccccc1N(C(=O)c1cccc(N3CCOCC3)c1)CC2 [Example 4]
Second: O=C(NC1CC1)c1cc2c(s1)-c1ccccc1N(C(=O)c1cccc(-c3ccc(N4CCOCC4)cc3)n1)CC2 [Example 66]
The pEC50 of the first is lower: < 6.10 for the first, 6.10 to 6.40 for the second. The second is the more potent here.

Compared with `Cc1noc([C@H]2C[C@@H](O)CN2c2cccc(C(=O)N3CCc4cc(C(=O)Nc5c(C)cccc5F)sc4-c4ccccc43)n2)n1` [Example 496], `Cc1cccc(F)c1NC(=O)c1cc2c(s1)-c1ccccc1N(C(=O)c1cccc(N3C[C@@H]4C[C@H]3CO4)n1)CC2` [Example 430] is higher in pEC50: < 6.10 for the first, > 6.40 for the second.

Going from `COc1cccc(CN(C)c2cccc(C(=O)N3CCc4cc(C(=O)Nc5c(C)cccc5F)sc4-c4ccccc43)n2)c1` [Example 343] to `Cc1cccc(F)c1NC(=O)c1cc2c(s1)-c1ccccc1N(C(=O)c1cccc(N(C)Cc3cccc4ccccc34)n1)CC2` [Example 353], the pEC50 falls from > 6.40 to < 6.10.

Going from `Cc1cccc(F)c1NC(=O)c1cc2c(s1)-c1ccccc1N(C(=O)c1cccc(N3CCC[C@@H]3C#N)n1)CC2` [Example 474] to `Cc1cccc(F)c1NC(=O)c1cc2c(s1)-c1ccccc1N(C(=O)c1cccc(N3CCCNCC3)n1)CC2` [Example 381], the pEC50 falls from > 6.40 to < 6.10.

Compared with `Cc1cccc(F)c1NC(=O)c1cc2c(s1)-c1ccccc1N(C(=O)c1cccc(-c3cnn(Cc4ccccc4)c3-c3ccccn3)n1)CC2` [Example 232], `Cc1cccc(F)c1NC(=O)c1cc2c(s1)-c1ccccc1N(C(=O)c1cccc(-c3c[nH]c4ccccc34)n1)CC2` [Example 207] is higher in pEC50: < 6.10 for the first, > 6.40 for the second.

Going from `O=C(NC1CC1)c1cc2c(s1)-c1ccccc1N(C(=O)c1ccc3ncn(C4CCOCC4)c3c1)CC2` [Example 13] to `O=C(NC1CC1)c1cc2c(s1)-c1ccccc1N(C(=O)c1cccc(N3CCC(F)(F)CC3)n1)CC2` [Example 23], the pEC50 rises from < 6.10 to > 6.40. The second is the more potent here.

Going from `COC(C)(C)CNc1cccc(C(=O)N2CCc3cc(C(=O)Nc4c(C)cccc4F)sc3-c3ccccc32)n1` [Example 373] to `Cc1cccc(F)c1NC(=O)c1cc2c(s1)-c1ccccc1N(C(=O)c1cccc(N[C@@H](C)c3ccccn3)n1)CC2` [Example 340], the pEC50 falls from > 6.40 to < 6.10. The first is the more potent here.

First: O=C(NC1CC1)c1cc2c(s1)-c1ccccc1N(C(=O)c1cccc(-c3cncc4ccccc34)n1)CC2 [Example 153]
Second: Cc1cccc(F)c1NC(=O)c1cc2c(s1)-c1ccccc1N(C(=O)c1cccc(-c3c[nH]c4ncccc34)n1)CC2 [Example 243]
The pEC50 of the first is lower: < 6.10 for the first, > 6.40 for the second. The second is the more potent here.

First: Cc1cccc(F)c1NC(=O)c1cc2c(s1)-c1ccccc1N(C(=O)c1ccc(NS(=O)(=O)c3cccnc3N3CC4(CCOCC4)C3)cc1)CC2 [Example 132]
Second: Cc1cccc(F)c1NC(=O)c1cc2c(s1)-c1ccccc1N(C(=O)c1cccc(N3CCCN(S(=O)(=O)c4ccccc4)CC3)n1)CC2 [Example 386]
The pEC50 of the first is lower: < 6.10 for the first, > 6.40 for the second.

Compared with `COc1ccn(-c2cccc(C(=O)N3CCc4cc(C(=O)Nc5c(C)cccc5F)sc4-c4ccccc43)n2)c(=O)c1` [Example 415], `COc1ccc2c(c1)S(=O)(=O)CCN(c1cccc(C(=O)N3CCc4cc(C(=O)Nc5c(C)cccc5F)sc4-c4ccccc43)n1)C2` [Example 437] is higher in pEC50: < 6.10 for the first, > 6.40 for the second.

Compared with `Cc1cccc(F)c1NC(=O)c1cc2c(s1)-c1ccccc1N(C(=O)c1cccc(N3CCC[C@@H]3c3ccccn3)n1)CC2` [Example 484], `Cc1cccc(F)c1NC(=O)c1cc2c(s1)-c1ccccc1N(C(=O)c1cccc(N3C(=O)Cc4ccccc43)n1)CC2` [Example 451] is lower in pEC50: > 6.40 for the first, < 6.10 for the second. The first is the more potent here.

First: Cc1cccc(F)c1NC(=O)c1cc2c(s1)-c1ccc(F)cc1N(C(=O)c1cccc(N3CCOc4ccccc4C3)n1)CC2 [Example 488]
Second: Cc1cccc(F)c1NC(=O)c1cc2c(s1)-c1cccc(F)c1N(C(=O)c1cccc(N3CCOc4ccccc4C3)n1)CC2 [Example 504]
The pEC50 of the first is higher: > 6.40 for the first, < 6.10 for the second.

`CCn1nccc1-c1cccc(C(=O)N2CCc3cc(C(=O)Nc4c(C)cccc4F)sc3-c3ccc(F)cc32)n1` [Example 174] and `Cc1cccc(F)c1NC(=O)c1cc2c(s1)-c1ccccc1N(C(=O)c1cccc(-c3ccnn3C)n1)CC2` [Example 237] cannot be ordered by pEC50: > 6.40 for the first, > 6.40 for the second.

`Cc1cccc(F)c1NC(=O)c1cc2c(s1)-c1ccccc1N(C(=O)c1cccc(N3CCCN(S(C)(=O)=O)c4ccccc43)n1)CC2` [Example 377] and `Cc1cccc(F)c1NC(=O)c1cc2c(s1)-c1ccccc1N(C(=O)c1cccc(-c3cn(C(=O)OC(C)(C)C)c4c(C)cccc34)n1)CC2` [Example 252] cannot be ordered by pEC50: < 6.10 for the first, < 6.10 for the second.

For `COC[C@H]1CCCN1c1cccc(C(=O)N2CCc3cc(C(=O)Nc4c(C)cccc4F)sc3-c3ccc(F)cc32)n1` [Example 490], the pEC50 was > 6.40.

Source: patent US10759816B2, “Heterocyclic compounds as RSV inhibitors” (Enanta Pharmaceuticals, Inc., priority 2016, dated 2020)
